Measurements reported in paper PMC8414367, “(E)-7-Ethylidene-lithocholic Acid (7-ELCA) Is a Potent Dual Farnesoid X Receptor (FXR) Antagonist and GPBAR1 Agonist Inhibiting FXR-Induced Gene Expression in Hepatocytes and Stimulating Glucagon-like Peptide-1 Secretion From Enteroendocrine Cells” (Frontiers in Pharmacology, 2021).
Like-named read-outs stand apart in the source and are kept apart here.

What was measured:
human FXR = molecular target: T1, human FXR (Homo sapiens, UniProt Q96RI1); test: FXR luciferase reporter gene assay (FXRE-luc) in HepG2 cells, antagonistic mode; format: cell-based; details: for remaining activity at 10 µM: tested compound 10 µM; for remaining activity at 40 µM: tested compound 40 µM, * = significant effect on cellular viability; for capacity to antagonize OCA-stimulated FXR activation (in words): Figure 3B
T1 sequence (Q96RI1 1-486): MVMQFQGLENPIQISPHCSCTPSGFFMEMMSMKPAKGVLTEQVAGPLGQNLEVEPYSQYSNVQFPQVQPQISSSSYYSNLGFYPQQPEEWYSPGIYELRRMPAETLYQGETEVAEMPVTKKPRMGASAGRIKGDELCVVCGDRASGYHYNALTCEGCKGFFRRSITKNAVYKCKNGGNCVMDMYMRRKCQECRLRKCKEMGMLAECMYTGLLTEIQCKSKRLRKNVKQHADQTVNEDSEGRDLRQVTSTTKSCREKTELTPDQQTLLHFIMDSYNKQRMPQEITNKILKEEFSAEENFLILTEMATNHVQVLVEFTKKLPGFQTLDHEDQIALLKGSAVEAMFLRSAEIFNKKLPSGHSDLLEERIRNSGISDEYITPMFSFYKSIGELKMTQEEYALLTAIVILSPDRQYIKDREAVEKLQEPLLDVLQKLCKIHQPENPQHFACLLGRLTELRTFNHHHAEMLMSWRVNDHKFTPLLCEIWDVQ
T1 sequence (P19793 1-462 partner): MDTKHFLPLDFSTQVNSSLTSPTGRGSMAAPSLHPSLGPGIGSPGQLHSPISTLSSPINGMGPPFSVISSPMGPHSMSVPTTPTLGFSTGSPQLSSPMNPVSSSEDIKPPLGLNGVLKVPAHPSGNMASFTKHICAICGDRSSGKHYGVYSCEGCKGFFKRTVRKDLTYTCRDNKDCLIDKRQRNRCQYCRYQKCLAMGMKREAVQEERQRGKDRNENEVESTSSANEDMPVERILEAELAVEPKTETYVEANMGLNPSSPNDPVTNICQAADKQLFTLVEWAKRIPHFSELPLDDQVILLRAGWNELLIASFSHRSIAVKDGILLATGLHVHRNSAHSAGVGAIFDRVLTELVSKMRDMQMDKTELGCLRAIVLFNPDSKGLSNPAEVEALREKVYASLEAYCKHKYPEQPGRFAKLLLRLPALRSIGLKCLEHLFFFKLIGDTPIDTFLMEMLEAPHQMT

GPBAR1 = molecular target: T2, GPBAR1 (Homo sapiens, UniProt Q8TDU6); test: GPBAR1 CRE-luc luciferase reporter assay in HepG2 cells; format: cell-based; details: 10 µM, 5 h, LCA 10 µM set as 100%
T2 construct: host or cells: HepG2
T2 sequence (Q8TDU6 1-330): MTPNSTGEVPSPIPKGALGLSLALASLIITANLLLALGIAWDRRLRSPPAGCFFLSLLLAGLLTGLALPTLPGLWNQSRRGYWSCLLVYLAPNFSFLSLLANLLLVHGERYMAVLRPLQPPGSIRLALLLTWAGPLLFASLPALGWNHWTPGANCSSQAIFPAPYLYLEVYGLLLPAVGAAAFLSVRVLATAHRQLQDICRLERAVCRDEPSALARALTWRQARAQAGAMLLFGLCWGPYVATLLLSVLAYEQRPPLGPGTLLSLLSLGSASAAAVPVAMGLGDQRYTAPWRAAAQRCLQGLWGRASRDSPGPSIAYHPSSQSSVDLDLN
Procedure: (C) Effects of LCA and 7-ELCA (both at 10 µM) on intracellular generation of cAMP in differentiated NCI-H716 cells after 30 min treatment. The increase in cAMP level (ΔcAMP) is presented as the difference between cAMP concertation in the treated sample after subtraction of the cAMP in the nontreated control sample. (D) Concentration-response curves for activation of GPBAR1 by LCA and 7-ELCA. EC50 values were calculated using nonlinear fitting of concentration-response curves. […] GLP-1 was normalized to protein concentration and GPBAR1 mRNA expression to GAPDH mRNA. Data are presented as a fold to control nontreated (NT) samples. Forskolin (FSK, 10 µM) was used as a GPBAR1-independent activator of cAMP production.

MTS viability assay [1] = format: cell-based, human; details: human, vehicle = 100%
Procedure: (§1) The potential cytotoxicity of 7-alkylated chenodeoxycholic acid derivatives were assessed in different human (HepG2, HepaRG and Huh7) and murine (AML12) hepatocyte-derived cell lines. For this purpose, hepatic cells were treated at increasing concentration for 24h and analyzed by MTS viability assay.
(§2) Table S2. Cell viability was determined using the Cell Titer 96 Aqueous One Solution Cell Proliferation Assay (MTS assay) after treatment with test compounds for 24 h in four different hepatic cell lines. Vehicle (0.1% DMSO) and background (10% SDS; v/v, toxic control) controls of cell viability were set to be 100% and 0%, respectively.

HepG2 = test: MTS viability assay; format: cell-based, human; details: Homo sapiens; HepG2, 24 h, MTS; read-out: IC50 (µM), cell viability
Procedure: as §1, §2

HepaRG = test: MTS viability assay; format: cell-based, human; details: Homo sapiens, 24 h, MTS, read-out: IC50 (µM), cell viability
Procedure: as §1, §2

Huh7 = test: MTS viability assay; format: cell-based, human; details: Homo sapiens, Huh-7; Huh7, 24 h, MTS; read-out: IC50 (µM), cell viability
Procedure: as §1, §2

MTS viability assay [2] = format: cell-based, murine; details: mouse, AML12 cells; AML12, 24 h, vehicle = 100%
Procedure: as §1, §2

AML12 = test: MTS viability assay; format: cell-based, murine; details: Mus musculus; AML12, 24 h, MTS; read-out: IC50 (µM), cell viability
Procedure: as §1, §2

FXR LBD = molecular target: T3, FXR LBD (Homo sapiens, UniProt Q96RI1); test: LanthaScreen TR-FRET FXR Coactivator Assay, antagonistic mode (SRC-2 peptide recruitment); format: biochemical
T3 construct: purchased ThermoFisher Scientific PV4833
T3 sequence (Q96RI1 262-486 limits assumed): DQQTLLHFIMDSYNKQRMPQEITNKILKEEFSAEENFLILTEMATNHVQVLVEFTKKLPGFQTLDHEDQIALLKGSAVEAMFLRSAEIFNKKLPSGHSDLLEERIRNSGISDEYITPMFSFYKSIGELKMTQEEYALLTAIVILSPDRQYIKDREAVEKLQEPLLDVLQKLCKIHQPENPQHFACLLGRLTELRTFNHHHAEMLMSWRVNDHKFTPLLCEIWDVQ
Procedure: The LanthaScreen® TR-FRET FXR Coactivator Assay (goat, PV4833, ThermoFisher Scientific) was performed to assess the affinity of tested compounds to FXR ligand-binding domain (LBD) in agonistic and antagonistic models. In the antagonistic assays, the FXR LBD was co-incubated with OCA or GW4064, together with tested ligands in increasing concentrations. The assay was performed according to the manufacturer’s protocols. […] Data have been obtained from three independent experiments performed in 4 replicates.

[3] = HepG2, GW4064 1 µM, read-out: relative response (%) to the model FXR ligand activation (set to be 100%), GW4064 1 µM
[4] = HepG2, CDCA 20 µM, read-out: relative response (%) to the model FXR ligand activation (set to be 100%), CDCA 20 µM

SMILES | remaining activity at 10 µM (human FXR; [3]) | remaining activity at 40 µM (human FXR; [4]) | remaining activity at 40 µM (human FXR; [3]) | capacity to antagonize OCA-stimulated FXR activation (in words) (human FXR; with 1 µM OCA) | CRE-luc activation compared to LCA (in words) (GPBAR1) | viability at 24 h, 10 µM (MTS viability assay [1]; HepG2 cells, HepG2, 24 h) | viability at 24 h, 10 µM (MTS viability assay [1]; HepaRG cells) | viability at 24 h, 10 µM (MTS viability assay [1]; Huh7 cells, Huh7, 24 h) | IC50 (HepG2) | IC50 (HepaRG) | IC50 (Huh7) | viability at 24 h, 10 µM (MTS viability assay [2]) | IC50 (AML12) | IC50 (human FXR; HepG2, co-treatment with 1 µM OCA, 24 h, read-out: IC50, inhibition of OCA-induced FXR activation) | inhibition at 100 µM (human FXR; HepG2, at 100 µM, with 1 µM OCA, read-out: inhibition of FXR activation) | IC50 (FXR LBD; GW4064 1 µM, read-out: IC50, inhibition of GW4064-promoted interaction of SRC-2 and FXR) | IC50 (FXR LBD; OCA 1 µM, read-out: IC50, inhibition of OCA-induced recruitment of SRC-2 to FXR LBD)
C=CC[C@@]1(O)C[C@@H]2C[C@H](O)CC[C@]2(C)C2CC[C@@]3(C)C(CC[C@@H]3[C@H](C)CCC(=O)O)C21 (stereo partly drawn) [2g, 3α,7α-Dihydroxy-7β-allyl-5β-cholan-24-oic acid] | 93.2 ± 0.6% | 107.2 ± 0.3% | 74.4 ± 4.4% | maintained | comparable activities to LCA | 97.7 ± 9.1% | 126 ± 4.5% | 93.5 ± 10% | 162 ± 2.1 µM | > 200 µM | > 100 µM | 109 ± 3.2% | 161 µM |  |  |  | 
C=C[C@@]1(O)C[C@@H]2C[C@H](O)CC[C@]2(C)C2CC[C@@]3(C)C(CC[C@@H]3[C@H](C)CCC(=O)O)C21 (stereo partly drawn) [2d, 3α,7α-Dihydroxy-7β-vinyl-5β-cholan-24-oic acid] | 93.9 ± 6.6% | 80.2 ± 0.4% | 75.2 ± 4.6% | maintained |  | 95.9 ± 8.3% | 104 ± 2.4% | 117 ± 5.6% | 168.8 ± 1 µM | > 200 µM | > 100 µM | 106 ± 3.9% | > 200 µM |  |  |  | 
C[C@H](CCC(=O)O)[C@H]1CCC2C3C(CC[C@@]21C)[C@@]1(C)CC[C@@H](O)C[C@H]1C[C@@]3(C)O (stereo partly drawn) [2b, 3α,7α-Dihydroxy-7β-methyl-5β-cholan-24-oic acid] | 85 ± 7.7% | 112 ± 1.6% | 64.9 ± 5% |  |  | 99.7 ± 1.2% | 119.5 ± 1% | 106 ± 5.8% | > 200 µM | > 200 µM | > 200 µM | 108 ± 7.7% | > 200 µM |  |  |  | 
CC(CCC(=O)O)C1CCC2C3C(CCC12C)C1(C)CCC(O)CC1CC3(O)C(C)C (stereo not drawn) [2h, 3α,7α-Dihydroxy-7β-isopropyl-5β-cholan-24-oic acid] | 91.4 ± 5.3% | 47.6 ± 0.3% | 63 ± 8.2% |  |  | 93.4 ± 7.4% | 101 ± 6.9% | 97.6 ± 7.3% | 103.3 ± 1 µM | 181 µM | > 100 µM | 94 ± 3.7% | 143 µM | 17.5 ± 1.7 µM | ~90% | 35.2 ± 5.4 µM | 25 ± 3.7 µM
C#C[C@@]1(O)C[C@@H]2C[C@H](O)CC[C@]2(C)C2CC[C@@]3(C)C(CC[C@@H]3[C@H](C)CCC(=O)O)C21 (stereo partly drawn) [2e, 3α,7α-Dihydroxy-7β-ethynyl-5β-cholan-24-oic acid] | 80.3 ± 3.9% | 114.8 ± 0.7% | 64.8 ± 4.9% | only minor antagonist activity | weak or no ability to act as agonists of GPBAR1 | 96.5 ± 4.1% | 92.9 ± 6.5% | 103 ± 4.4% | > 200 µM | > 200 µM | > 200 µM | 97.5 ± 6.6% | > 200 µM |  |  |  | 
C=CCCC[C@@]1(O)C[C@@H]2C[C@H](O)CC[C@]2(C)C2CC[C@@]3(C)C(CC[C@@H]3[C@H](C)CCC(=O)O)C21 (stereo partly drawn) [2j, 3α,7α-Dihydroxy-7β-(pent-4-en)-5β-cholan-24-oic acid] | 93.6 ± 2.8% |  |  | maintained | weak or no ability to act as agonists of GPBAR1 | 87.8 ± 6.7% | 93.1 ± 4.4% | 114 ± 7% | 77.3 ± 1.2 µM | 76.5 µM | 34 ± 1.5 µM | 127 ± 7.1% | 75 µM |  |  |  | 
CC[C@@]1(O)C[C@@H]2C[C@H](O)CC[C@]2(C)C2CC[C@@]3(C)C(CC[C@@H]3[C@H](C)CCC(=O)O)C21 (stereo partly drawn) [2c, 3α,7α-Dihydroxy-7β-ethyl-5β-cholan-24-oic acid] | 89 ± 6% | 67.1 ± 9.2% | 75.3 ± 2.5% |  |  | 100 ± 3.9% | 117 ± 1.3% | 113 ± 4.8% | > 200 µM | > 200 µM | > 200 µM | 105 ± 2% | > 200 µM |  |  |  | 
